Test results: PubChem BioAssay AID192 (DTP/NCI, 2004)
Where “and” joins values, the source holds several entries; their conditions need not be identical. Equal values may be shown once. Toxic doses and inconclusive results are not listed.

Tested on: BDF1 mice, B16 melanoma ip, median survival T/C
Test: NCI In Vivo Anticancer Drug Screen. Data for tumor model B16 Melanoma (intraperitoneal) in B6D2F1 (BDF1) mice
Conditions: endpoint: median survival time, higher = longer survival
In short: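 Values are ratios of treated (T) to vehicle-control (C) measurements of survival or tumor size in tumor-bearing mice.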

[1] = dose: 100.0 mg/kg/injection, schedule: Q01DX009 (ip), vehicle: saline with Tween-80
[2] = dose: 200.0 mg/kg/injection, schedule: Q01DX009 (ip), vehicle: saline with Tween-80
[3] = dose: 400.0 mg/kg/injection, schedule: Q01DX009 (ip), vehicle: saline with Tween-80
[4] = dose: 50.0 mg/kg/injection, schedule: Q01DX009 (ip), vehicle: saline with Tween-80
[5] = dose: 25.0 mg/kg/injection, schedule: Q01DX009 (ip), vehicle: saline with Tween-80
[6] = dose: 12.5 mg/kg/injection, schedule: Q01DX009 (ip), vehicle: saline
[7] = dose: 25.0 mg/kg/injection, schedule: Q01DX009 (ip), vehicle: saline
[8] = dose: 50.0 mg/kg/injection, schedule: Q01DX009 (ip), vehicle: saline
[9] = dose: 100.0 mg/kg/injection, schedule: Q01DX009 (ip), vehicle: saline
[10] = dose: 50.0 mg/kg/injection, schedule: Q01DX009 (ip), vehicle: Klucel (hydroxypropylcellulose) (HPC)
[11] = dose: 100.0 mg/kg/injection, schedule: Q01DX009 (ip), vehicle: Klucel (hydroxypropylcellulose) (HPC)
[12] = dose: 200.0 mg/kg/injection, schedule: Q01DX009 (ip), vehicle: Klucel (hydroxypropylcellulose) (HPC)
[13] = dose: 3.0 mg/kg/injection, schedule: Q01DX009 (ip), vehicle: saline with Tween-80
[14] = dose: 6.0 mg/kg/injection, schedule: Q01DX009 (ip), vehicle: saline with Tween-80
[15] = dose: 12.0 mg/kg/injection, schedule: Q01DX009 (ip), vehicle: saline with Tween-80
[16] = dose: 0.5 mg/kg/injection, schedule: Q01DX009 (ip), vehicle: saline with Tween-80

O=C(O)C1(C(=O)O)CCC1.[NH2-].[NH2-].[Pt+2]
T/C (dose: 2.0 mg/kg/injection, schedule: Q01DX009 (ip), vehicle: saline): 112 % of control
T/C (dose: 4.0 mg/kg/injection, schedule: Q01DX009 (ip), vehicle: saline): 115 % of control
T/C (dose: 6.25 mg/kg/injection, schedule: Q01DX009 (ip), vehicle: other): 123 % of control
T/C (dose: 8.0 mg/kg/injection, schedule: Q01DX009 (ip), vehicle: saline): 150 % of control
T/C (dose: 12.5 mg/kg/injection, schedule: Q01DX009 (ip), vehicle: other): 176 % of control
T/C (dose: 16.0 mg/kg/injection, schedule: Q01DX009 (ip), vehicle: saline): 176 % of control
T/C (dose: 25.0 mg/kg/injection, schedule: Q01DX009 (ip), vehicle: other): 160 % of control and 164 % of control
T/C (dose: 32.0 mg/kg/injection, schedule: Q01DX009 (ip), vehicle: saline): 176 % of control

CC[n+]1ccc(Nc2ccc(NC(=O)c3ccc(C(=O)Nc4ccc(Nc5cc[n+](CC)c(N)n5)cc4)cc3)cc2)nc1N
T/C (dose: 25.0 mg/kg/injection, schedule: Q01DX009 (ip), vehicle: suspension in saline): 162 % of control
T/C (dose: 50.0 mg/kg/injection, schedule: Q01DX009 (ip), vehicle: suspension in saline): 163 % of control

O=C(O)C1CCCCC1C(=O)Nc1ccccc1C(F)(F)F (stereo not drawn)
T/C [1]: 90 % of control
T/C [2]: 90 % of control
T/C [3]: 90 % of control

O=C(Nc1ccccc1)Nc1cccc(Cl)c1
T/C [4]: 100 % of control
T/C [1]: 98 % of control
T/C [2]: 96 % of control

CC1=NN(c2ccccc2)C(=O)C1CC1C(=O)N(c2ccccc2)N=C1C (stereo not drawn)
T/C [1]: 95 % of control
T/C [2]: 95 % of control
T/C [3]: 89 % of control

Nc1ccc(S(N)(=O)=O)cc1
T/C [5]: 97 % of control and 99 % of control
T/C [4]: 94 % of control and 102 % of control
T/C [1]: 91 % of control and 100 % of control
T/C [2]: 96 % of control and 102 % of control
T/C [3]: 99 % of control and 105 % of control

CC(=O)OCCC/C(=C\c1ccc2ccccc2c1)[N+](=O)[O-]
T/C (dose: 6.25 mg/kg/injection, schedule: Q01DX009 (ip), vehicle: saline): 100 % of control
T/C [6]: 95 % of control
T/C [7]: 91 % of control
T/C [8]: 95 % of control
T/C [9]: 93 % of control

C=C1CCN(c2ccccc2)C1=O
T/C (dose: 4.0 mg/kg/injection, schedule: Q01DX009 (ip), vehicle: saline + alcohol): 96 % of control
T/C (dose: 8.0 mg/kg/injection, schedule: Q01DX009 (ip), vehicle: saline + alcohol): 116 % of control
T/C (dose: 16.0 mg/kg/injection, schedule: Q01DX009 (ip), vehicle: saline + alcohol): 112 % of control
T/C (dose: 64.0 mg/kg/injection, schedule: Q01DX009 (ip), vehicle: saline + alcohol): 107 % of control

c1ccc(-c2nnc(-c3ccccn3)nn2)nc1
T/C [10]: 103 % of control
T/C [11]: 107 % of control
T/C [12]: 97 % of control
T/C (dose: 400.0 mg/kg/injection, schedule: Q01DX009 (ip), vehicle: Klucel (hydroxypropylcellulose) (HPC)): 96 % of control

CCCCCCCCC(=O)OCCNC(=O)C(C)OC(=O)CCCCCCCC (stereo not drawn)
T/C (dose: 25.0 mg/kg/injection, schedule: Q01DX009 (ip), vehicle: Klucel (hydroxypropylcellulose) (HPC)): 102 % of control
T/C [10]: 103 % of control
T/C [11]: 92 % of control

O=C1C(Cl)=C(Nc2ccc(C(=O)Nc3ccc4cc(S(=O)(=O)O)cc(S(=O)(=O)O)c4c3)cc2)C(=O)C(Cl)=C1Nc1ccc(C(=O)Nc2ccc3cc(S(=O)(=O)O)cc(S(=O)(=O)O)c3c2)cc1
T/C [8]: 109 % of control
T/C [9]: 102 % of control
T/C (dose: 200.0 mg/kg/injection, schedule: Q01DX009 (ip), vehicle: saline): 100 % of control

O=S(=O)(OCC(COS(=O)(=O)c1ccccc1)(COS(=O)(=O)c1ccccc1)COS(=O)(=O)c1ccccc1)c1ccccc1
T/C [4]: 110 % of control
T/C [1]: 97 % of control
T/C [2]: 110 % of control

Cc1cc2no[n+]([O-])c2cc1C
T/C [10]: 116 % of control
T/C [11]: 99 % of control
T/C [12]: 117 % of control

O=[N+]([O-])c1cc([N+](=O)[O-])c(Nc2cccc3ccccc23)c([N+](=O)[O-])c1
T/C [10]: 92 % of control
T/C [11]: 103 % of control
T/C [12]: 97 % of control

CCOc1ccc(NC(=O)OCCN2CCN(CCc3ccccc3)C(C)C2)cc1 (stereo not drawn)
T/C [5]: 108 % of control
T/C [4]: 113 % of control
T/C [1]: 101 % of control

O=S(=O)(Nc1ccc(-c2ccccc2)cc1)c1ccccc1
T/C [4]: 100 % of control
T/C [1]: 91 % of control
T/C [2]: 89 % of control

C/C=C1\CN(C)[C@H]2Cc3c([nH]c4ccccc34)[C@@H](c3cc4[nH]c5c(c4cc3OC)CCN3C[C@H]4C[C@H](CC)[C@H]3[C@@]5(C(=O)OC)C4)C[C@H]1C2C(=O)OC (stereo partly drawn)
T/C (dose: 2.5 mg/kg/injection, schedule: Q01DX009 (ip), vehicle: suspension in saline): 98 % of control
T/C [13]: 100 % of control
T/C (dose: 5.0 mg/kg/injection, schedule: Q01DX009 (ip), vehicle: suspension in saline): 101 % of control
T/C [14]: 95 % of control
T/C (dose: 10.0 mg/kg/injection, schedule: Q01DX009 (ip), vehicle: suspension in saline): 99 % of control
T/C [15]: 106 % of control
T/C (dose: 25.0 mg/kg/injection, schedule: Q04DX003 (ip), vehicle: saline with Tween-80): 90 % of control
T/C [1]: 87 % of control

CC(=O)OCC1OC(S[As](C)C)C(OC(C)=O)C(OC(C)=O)C1OC(C)=O (stereo not drawn)
T/C [10]: 107 % of control
T/C [11]: 96 % of control

COc1cc2c(c(OC)c1OC)-c1ccc(OC)c(=O)cc1[C@@H](NC(=O)CCl)CC2
T/C (dose: 0.25 mg/kg/injection, schedule: Q01DX009 (ip), vehicle: saline with Tween-80): 154 % of control
T/C [16]: 161 % of control

CCCC(C(=O)O)C1=CCCC1 (stereo not drawn)
T/C [5]: 115 % of control
T/C [4]: 112 % of control
T/C [1]: 103 % of control

NC(=O)CC(N)C(=O)O.[Cl-].[Cl-].[Cl-].[Cl-].[Pt+2] (stereo not drawn)
T/C (dose: 1.56 mg/kg/injection, schedule: Q01DX009 (ip), vehicle: saline): 114 % of control
T/C (dose: 3.13 mg/kg/injection, schedule: Q01DX009 (ip), vehicle: saline): 122 % of control

COC1CC(C)C(OC)C2=CC(=O)C=C(NC(=O)/C(C)=C/C=C\C(C)C(OC(N)=O)/C(C)=C\C(C)C1OC)C2=O (stereo not drawn)
T/C (dose: 5.0 mg/kg/injection, schedule: Q01DX009 (ip), vehicle: saline + alcohol): 152 % of control
T/C (dose: 10.0 mg/kg/injection, schedule: Q01DX009 (ip), vehicle: saline + alcohol): 172 % of control

CC(O)C1(O)C(O)CC(OC2c3cc4c(c(O)c3[C@@H]3C[C@@]2(C)OC32C=c3cc[nH]c3=N2)C(=O)c2cccc(O)c2C4=O)OC1C (stereo partly drawn)
T/C [16]: 97 % of control
T/C (dose: 1.0 mg/kg/injection, schedule: Q01DX009 (ip), vehicle: saline with Tween-80): 112 % of control
T/C (dose: 2.0 mg/kg/injection, schedule: Q01DX009 (ip), vehicle: saline with Tween-80): 109 % of control
T/C (dose: 4.0 mg/kg/injection, schedule: Q01DX009 (ip), vehicle: saline with Tween-80): 117 % of control
T/C (dose: 8.0 mg/kg/injection, schedule: Q01DX009 (ip), vehicle: saline with Tween-80): 115 % of control
T/C (dose: 16.0 mg/kg/injection, schedule: Q01DX009 (ip), vehicle: saline with Tween-80): 124 % of control

COc1cccnc1/C=N/NC(N)=S
T/C (dose: 1.5 mg/kg/injection, schedule: Q01DX009 (ip), vehicle: saline with Tween-80): 98 % of control
T/C [13]: 93 % of control
T/C [14]: 95 % of control
T/C [15]: 98 % of control

COc1c2c(cc3c1C(Cl)N(C)CC3)OCO2 (stereo not drawn)
T/C [6]: 96 % of control
T/C [7]: 110 % of control
T/C [8]: 106 % of control

CC(=O)SCCC(=O)O
T/C (dose: 0.75 mg/kg/injection, schedule: Q01DX009 (ip), vehicle: saline): 107 % of control
T/C (dose: 1.5 mg/kg/injection, schedule: Q01DX009 (ip), vehicle: saline): 112 % of control
T/C (dose: 3.0 mg/kg/injection, schedule: Q01DX009 (ip), vehicle: saline): 114 % of control
